Data reported in patent US11339144B2 (Navitor Pharmaceuticals, Inc., priority 2017, dated 2022).

Key:
[1] = molecular target: HA-GST-Rheb (GTP-γ-S loaded) activating mTORC1 (Homo sapiens (Human), UniProt Q15382); assay: Rheb-dependent in vitro kinase assay (Rheb-IVK; LanthaScreen or Western readout); type: biochemical; conditions: Rheb-dependent in vitro kinase assay; read-out: IVK IC50
[2] = molecular target: Rheb (Homo sapiens (Human), UniProt Q15382); assay: Affinity Selection Mass Spectrometry (ASMS); type: binding; conditions: affinity (R3/R0) in Affinity Selection Mass Spectrometry assay
Protocol: Method 2 (Affinity Selection Mass Spectrometry
Protein: Rheb (19 KDa) in the following buffer: 20 mM Tris, pH 8.0, 200 mM NaCl, 2 mM DTT, 5 mM MgCl2 was prepared as under.
Human Rheb protein (I-169) was purified from BL21 (DE3) E. coli using a His-Smt-Rheb expression vector. The cell paste was lysed in lysis buffer (50 mM HEPES pH 7.5, 0.5 M NaCl, 5% Glycerol, 1% CHAPS, EDTA free protease inhibitor tablets, lysozyme to 1 mg/mL, benzonase 250U), sonicated, and purified on a HiTrap Ni Chelating Column (GE Healthcare) using the following buffer: 50 mM HEPES pH 7.5, 0.5 M NaCl, 5% Glycerol, and imidazole increasing in concentration from 5 mM to 500 mM. The His-Smt tag was cleaved using a U1p1 enzyme and dialyzed into 50 mM HEPES pH 7.5, 0.5 M NaCl, 5% Glycerol. The resultant protein was again purified on a Ni Chelating column to remove the U1p1 enzyme and His-Smt tag and then purified by size exclusion chromatography on a Sephacryl S-100 26/60 column into the following final buffer: 20 mM NaPhos pH 7.0, 100 mM NaCl, 5 mM MgCl2, 2 mM TCEP.
Concentrations: 60 μM Rheb, 180 μM GDP and 2 μM of each compound,
Ultrafiltration Filter (Sartorius, Germany) MW cutoff: 10 KDa
• (a) Sample preparation: Prepare sample for each group in 1.5 mL microcentrifuge tube according to the experimental design, total volume 550 μL. In a standard ASMS experiment there are two groups: Protein plus (P+L+) and protein minus (P−L+). • (b) Transfer 50 μL from the 550 μL to a vial as R0 sample. Incubate the rest solution for 30 min at room temperature. Then transfer the 500 μL into an ultrafiltration filter tube and centrifuge at 12×10^3 rpm for ˜10 min, leave about 50 μL solution (otherwise adjust this time). • (c) Add incubation buffer to the ultrafiltration filter tube to about 500 μL. Stir gently and centrifuge mixtures as above, leave about 50 μL solution. • (d) Repeat the step c. Transfer the remaining 50 μL upper layer solution to a new vial as R^3 sample. Sample Extraction: Add 150 μL MeCN to denature the protein completely. Centrifuge at 12×10^3 rpm for 5 min. Transfer the supernatant into LC-MS auto sampler vials for LC-MS analysis (5 uL injection).
Waters Acquity UPLC system, Waters ACQUITY UPLC BEH C18 column (2.1×50 mm, 1.7 μM); Mobile phase A: 0.1% formic acid solution, B: MeCN; 0.3 mL/min, 5 μL injection, gradient elution (Table 5).
Waters Synapt G1 Q-TOF system, positive or negative ion scan modes; Capillary voltage: 3.0 kV; Method: MSE; Mass range: m/z=100-1000; Source temperature: 120° C.; Desolvation temperature: 400° C.; Collision voltage: 35 V; Sampling Cone: 35 V; Extraction Cone: 4.0 V; Cone Gas: 50 L/h; Desolvation Gas: 800 L/h.

HA-GST-Rheb (GTP-γ-S loaded) activating mTORC1, sequence (Q15382 1-181): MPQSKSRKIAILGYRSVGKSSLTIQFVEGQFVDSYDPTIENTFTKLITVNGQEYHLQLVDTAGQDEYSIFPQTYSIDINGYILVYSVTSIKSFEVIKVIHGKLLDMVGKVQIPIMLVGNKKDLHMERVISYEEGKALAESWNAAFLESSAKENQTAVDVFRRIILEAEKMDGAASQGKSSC
Rheb, sequence (Q15382 1-169 limits assumed): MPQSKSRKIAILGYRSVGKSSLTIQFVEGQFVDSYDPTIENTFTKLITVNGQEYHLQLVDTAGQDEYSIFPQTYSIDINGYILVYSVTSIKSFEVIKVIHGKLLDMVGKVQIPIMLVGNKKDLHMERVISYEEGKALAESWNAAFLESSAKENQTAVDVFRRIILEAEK

Row | IC50 [1] [µM] | Structure (SMILES) | ASMS (R3/R0) [2]
1 | 10 to 100 | Cc1ccc(Oc2cc(Cl)cc3[nH]c(C(=O)O)cc23)cc1C(F)(F)F [I-81, 6-chloro-4-(4-methyl-3-(trifluoromethyl)phenoxy)-1H-indole-2-carboxylic acid] | B (an affinity (R3/R0) between 100% and 20%)
2 | 10 to 100 | O=C(O)c1cc2c(Br)cc(Oc3ccccc3)cc2n1Cc1ccc(C(=O)N(CCO)CCO)cc1 [I-67, 1-(4-(bis(2-hydroxyethyl)carbamoyl)benzyl)-4-bromo-6-phenoxy-1H-indole-2-carboxylic acid] | C (an affinity (R3/R0)<20%)
3 | 10 to 100 | O=C(Nc1cccnc1)c1ccc(Cn2c(C(=O)O)cc3c(Br)cc(Oc4ccccc4)cc32)cc1 [I-56, 4-bromo-6-phenoxy-1-(4-(pyridin-3-ylcarbamoyl)benzyl)-1H-indole-2-carboxylic acid] | B (an affinity (R3/R0) between 100% and 20%)
4 | 100 to 300 | O=C(O)c1ccc(-c2nc3cc(Cl)c(Cl)cc3[nH]2)cc1 [I-364, 4-(5,6-dichloro-1H-benzo[d]imidazol-2-yl)benzoic acid] | B (an affinity (R3/R0) between 100% and 20%)
5 | > 100 | O=C(O)Cn1c(-c2ccnc3[nH]ccc23)nc2c(Sc3ccc(Cl)cc3)c(Cl)ccc21 [I-322] | C (an affinity (R3/R0)<20%)
6 | 100 to 300 | O=C(O)c1ccc(CCn2c(-c3c[nH]c4ncccc34)nc3cc(Cl)c(Cl)cc32)cc1 [I-335, 4-(2-(5,6-dichloro-2-(1H-pyrrolo[2,3-b]pyridin-3-yl)-1H-benzo[d]imidazol-1-yl)ethyl)benzoic acid] | B (an affinity (R3/R0) between 100% and 20%)
7 | < 10 | O=C(O)c1ccc(Cn2c(C(=O)O)cc3c(Br)cc(Sc4ccc(Cl)c(Cl)c4)cc32)cc1 [I-42, 4-bromo-1-(4-carboxybenzyl)-6-(3,4-dichlorophenylthio)-1H-indole-2-carboxylic acid] | B (an affinity (R3/R0) between 100% and 20%)
8 | < 10 | CN(C)C(=O)c1ccc(Cn2c(C(=O)O)cc3ccc(Sc4ccc(Oc5ccccc5)cc4)cc32)cc1 [I-17, 1-(4-(dimethylcarbamoyl)benzyl)-6-(4-phenoxyphenylthio)-1H-indole-2-carboxylic acid] | B (an affinity (R3/R0) between 100% and 20%)
9 | > 100 | CC(C)NC(=O)c1ccc(Cn2c(C(=O)O)cc3c(Br)cc(Sc4ccc(Cl)c(Cl)c4)cc32)cc1 [I-101] | B (an affinity (R3/R0) between 100% and 20%)
10 | 10 to 100 | O=C(O)c1ccc(Cn2ccc3c(Br)cc(Oc4ccccc4)cc32)cc1 [I-164, 4-((4-bromo-6-phenoxy-1H-indol-1-yl)methyl)benzoic acid] | B (an affinity (R3/R0) between 100% and 20%)

The next lines start with the compound.

Row | Structure (SMILES) | IC50 [1] [µM] | ASMS (R3/R0) [2]
11 | OCc1cc2c(Sc3ccc(OC(F)(F)F)cc3)cc(Cl)cc2[nH]1 [I-123, (6-chloro-4-(4-(trifluoromethoxy)phenylthio)-1H-indol-2-yl)methanol] | < 10 | B (an affinity (R3/R0) between 100% and 20%)
12 | OCc1cc2c(Oc3cc(Cl)ccc3Cl)cc(Cl)cc2[nH]1 [I-171, (6-Chloro-4-(2,5-dichlorophenoxy)-1H-indol-2-yl)methanol] | 10 to 100 | B (an affinity (R3/R0) between 100% and 20%)
13 | CC(C)(C)OC(=O)N1CCN(c2cc(-c3nc4cc(Cl)c(Cl)cc4[nH]3)ccn2)CC1 [I-347] | > 100 | B (an affinity (R3/R0) between 100% and 20%)
14 | CN1CCC[C@H]1CNC(=O)c1cc2c(Br)cc(Sc3ccc(Cl)c(Cl)c3)cc2[nH]1 [I-89] | > 100 | A (an affinity (R3/R0)>100%)
15 | Clc1ccc(COc2cc3nc(-c4ccncc4)[nH]c3c(Cl)c2Cl)cc1 [I-354, 6,7-dichloro-5-(4-chlorobenzyloxy)-2-(pyridin-4-yl)-1H-benzo[d]imidazole] | 10 to 100 | A (an affinity (R3/R0)>100%)
16 | CN1CCN(C(=O)c2ccc(-c3nc4cc(Cl)c(Cl)cc4[nH]3)cc2)CC1 [I-349] | > 100 | B (an affinity (R3/R0) between 100% and 20%)
17 | CN1CCC(CNC(=O)c2nc3cc(OCc4ccc(Cl)cc4)c(Cl)c(Cl)c3[nH]2)CC1 [I-337, 6,7-dichloro-5-(4-chlorobenzyloxy)-N-((1-methylpiperidin-4-yl)methyl)-1H-benzo[d]imidazole-2-carboxamide] | > 3 | B (an affinity (R3/R0) between 100% and 20%)
18 | CN1CCC[C@H]1CNC(=O)c1ccc(-c2nc3cc(Cl)c(Cl)cc3[nH]2)cc1 [I-336] | > 100 | B (an affinity (R3/R0) between 100% and 20%)
19 | CN1CCC(CCNC(=O)c2cc3c(-c4cc(Cl)cc(Cl)c4)cc(Cl)cc3[nH]2)CC1 [I-31] | > 100 | A (an affinity (R3/R0)>100%)
20 | O=C(O)c1cc2c(Sc3ccc(Cl)cc3Cl)cc(Cl)c(Cl)c2[nH]1 [I-45, 6,7-dichloro-4-(2,4-dichlorophenylthio)-1H-indole-2-carboxylic acid] | < 10 | A (an affinity (R3/R0)>100%)
21 | CN1CCN(c2cccc(NC(=O)c3cc4c(Sc5ccc(Cl)cc5Cl)cc(Cl)cc4[nH]3)c2)CC1 [I-121, 6-chloro-4-(2,4-dichlorophenylthio)-N-(3-(4-methylpiperazin-1-yl)phenyl)-1H-indole-2-carboxamide] | < 10 | B (an affinity (R3/R0) between 100% and 20%)
22 | OCc1nc2c(OCC3CCCCC3)c(Cl)c(Cl)cc2[nH]1 [I-395, (5,6-dichloro-4-(cyclohexylmethoxy)-1H-benzo[d]imidazol-2-yl)methanol] | < 10 | A (an affinity (R3/R0)>100%)
23 | O=C(O)c1cc2c(Cl)cc(-c3cc(Cl)cc(Cl)c3)cc2[nH]1 [I-47, 4-chloro-6-(3,5-dichlorophenyl)-1H-indole-2-carboxylic acid] | 10 to 100 | B (an affinity (R3/R0) between 100% and 20%)
24 | CN1CCN(C(=O)c2cc3nc(-c4ccnc5[nH]ccc45)[nH]c3c(Cl)c2Cl)CC1 [I-321] | > 100 | C (an affinity (R3/R0)<20%)
25 | N[C@@H]1CCCC[C@@H]1COc1c(Cl)c(Cl)cc2[nH]c(CO)nc12 (racemic) [I-376, (4-(((+,−)-cis-2-aminocyclohexyl)methoxy)-5,6-dichloro-1H-benzo[d]imidazol-2-yl)methanol] | 100 to 300 | C (an affinity (R3/R0)<20%)
26 | CN1CCN(c2ccc(-c3nc4cc(Cl)c(Cl)cc4[nH]3)cc2)CC1 [I-366, 5,6-dichloro-2-(4-(4-methylpiperazin-1-yl)phenyl)-1H-benzo[d]imidazole] | 100 to 300 | A (an affinity (R3/R0)>100%)
27 | OCc1nc2c(OC[C@H]3CCCC[C@H]3O)c(Cl)c(Cl)cc2[nH]1 (racemic) [I-394, (+,−)-cis-2-((5,6-dichloro-2-(hydroxymethyl)-1H-benzo[d]imidazol-4-yloxy)methyl)cyclohexanol] | 10 to 100 | B (an affinity (R3/R0) between 100% and 20%)
28 | Nc1ccc(N2CCN(C(=O)c3cc4c(Sc5ccc(Cl)cc5Cl)cc(Cl)cc4[nH]3)CC2)cc1F [I-92, (4-(4-amino-3-fluorophenyl)piperazin-1-yl)(6-chloro-4-(2,4-dichlorophenylthio)-1H-indol-2-yl)methanone] | 10 to 100 | B (an affinity (R3/R0) between 100% and 20%)
